Measurements published in patent US10500318B1, “Dosing regimens for treating hypoxia-associated tissue damage” (Temple Therapeutics BV, priority 2018, dated 2019).
Residues, ends and D or L forms follow the SMILES beside them.

How the values were obtained:
[1] = at room temperature; cited from earlier work
HIF-1α = HIF-1α ELISA in normal peritoneal fibroblasts after episodic hypoxia and Ala-Gln treatment; type: cell-based; conditions: for HIF-1α 12 hours after hypoxia initiation / HIF-1α 24 hours after hypoxia initiation: NPF
Protocol: Primary cultures of normal peritoneal fibroblasts (NPF) were established and pre-hypoxia samples were taken to determine levels of HIF-1α and Type 1 Collagen (COL1A1) under normoxic conditions prior to exposure to episodic hypoxic environments. Cultured cells were exposed to episodes of hypoxia (2% 02; 0.5, 1, 2, or 4, […] hours), followed by restoration of normoxia (20% O2) and immediate treatment with Ala-[…], 1, 2, or 10 mM). Levels of HIF-1α and COL1A1 were measured at 12 hours and 24 hours following the initiation of hypoxia. All treatments were completed in triplicate. HIF-1α and COL1A1 levels were determined by ELISA (HIF-1α ELISA (ThermoFisher Scientific) or COL1A1 ELISA (LifeSpan Biosciences), respectively, per the manufacturer's protocol). Data were analyzed with one-way ANOVA followed by Tukey's tests with Bonferroni correction. Results for HIF-1α are in Tables 1-3.

NC(=O)CC[C@H](N)C(=O)O [L-glutamine]
water solubility [1]: about 40 g/L

C[C@H](N)C(=O)N[C@@H](CCC(N)=O)C(=O)O [AG, L-alanyl-L-glutamine] (H-Ala-Gln-OH)
HIF-1α difference from untreated controls (HIF-1α; AG 1.0 mM, 12 h post hypoxia initiation, hypoxia time 0.5 h): 3.6 pg/mg protein
HIF-1α difference from untreated controls (HIF-1α; AG 1.0 mM, 12 h post hypoxia initiation, hypoxia time 1.0 h): 2.3 pg/mg protein
HIF-1α difference from untreated controls (HIF-1α; AG 1.0 mM, 12 h post hypoxia initiation, hypoxia time 2.0 h): 2.4 pg/mg protein
HIF-1α difference from untreated controls (HIF-1α; AG 1.0 mM, 12 h post hypoxia initiation, hypoxia time 4.0 h): 0.9 pg/mg protein
HIF-1α difference from untreated controls (HIF-1α; AG 1.0 mM, 24 h post hypoxia initiation, hypoxia time 0.5 h): 1.6 pg/mg protein
HIF-1α difference from untreated controls (HIF-1α; AG 1.0 mM, 24 h post hypoxia initiation, hypoxia time 1.0 h): 3.1 pg/mg protein
HIF-1α difference from untreated controls (HIF-1α; AG 1.0 mM, 24 h post hypoxia initiation, hypoxia time 2.0 h): 1.8 pg/mg protein
HIF-1α difference from untreated controls (HIF-1α; AG 1.0 mM, 24 h post hypoxia initiation, hypoxia time 4.0 h): 0.7 pg/mg protein
HIF-1α 12 hours after hypoxia initiation (HIF-1α; AG 1.0 mM, hypoxia time 0.5 h): 4.2 pg/mg protein
HIF-1α 24 hours after hypoxia initiation (HIF-1α; AG 1.0 mM, hypoxia time 0.5 h): 3.6 pg/mg protein
HIF-1α 12 hours after hypoxia initiation (HIF-1α; AG 1.0 mM, hypoxia time 1.0 h): 4.6 pg/mg protein
HIF-1α 24 hours after hypoxia initiation (HIF-1α; AG 1.0 mM, hypoxia time 1.0 h): 4.6 pg/mg protein
HIF-1α 12 hours after hypoxia initiation (HIF-1α; AG 1.0 mM, hypoxia time 2.0 h): 3.3 pg/mg protein
HIF-1α 24 hours after hypoxia initiation (HIF-1α; AG 1.0 mM, hypoxia time 2.0 h): 3.3 pg/mg protein
HIF-1α 12 hours after hypoxia initiation (HIF-1α; AG 1.0 mM, hypoxia time 4.0 h): 4.9 pg/mg protein
HIF-1α 24 hours after hypoxia initiation (HIF-1α; AG 1.0 mM, hypoxia time 4.0 h): 4.9 pg/mg protein
HIF-1α difference from untreated controls (HIF-1α; AG 2.0 mM, 12 h post hypoxia initiation, hypoxia time 0.5 h): 3.1 pg/mg protein
HIF-1α difference from untreated controls (HIF-1α; AG 2.0 mM, 12 h post hypoxia initiation, hypoxia time 1.0 h): 4.5 pg/mg protein
HIF-1α difference from untreated controls (HIF-1α; AG 2.0 mM, 12 h post hypoxia initiation, hypoxia time 2.0 h): 2.5 pg/mg protein
HIF-1α difference from untreated controls (HIF-1α; AG 2.0 mM, 12 h post hypoxia initiation, hypoxia time 4.0 h): 1.4 pg/mg protein
HIF-1α difference from untreated controls (HIF-1α; AG 2.0 mM, 24 h post hypoxia initiation, hypoxia time 0.5 h): 1.1 pg/mg protein
HIF-1α difference from untreated controls (HIF-1α; AG 2.0 mM, 24 h post hypoxia initiation, hypoxia time 1.0 h): 5.3 pg/mg protein
HIF-1α difference from untreated controls (HIF-1α; AG 2.0 mM, 24 h post hypoxia initiation, hypoxia time 2.0 h): 1.9 pg/mg protein
HIF-1α difference from untreated controls (HIF-1α; AG 2.0 mM, 24 h post hypoxia initiation, hypoxia time 4.0 h): 1.2 pg/mg protein
HIF-1α 12 hours after hypoxia initiation (HIF-1α; AG 2.0 mM, hypoxia time 0.5 h): 4.7 pg/mg protein
HIF-1α 24 hours after hypoxia initiation (HIF-1α; AG 2.0 mM, hypoxia time 0.5 h): 4.1 pg/mg protein
HIF-1α 12 hours after hypoxia initiation (HIF-1α; AG 2.0 mM, hypoxia time 1.0 h): 2.4 pg/mg protein
HIF-1α 24 hours after hypoxia initiation (HIF-1α; AG 2.0 mM, hypoxia time 1.0 h): 2.4 pg/mg protein
HIF-1α 12 hours after hypoxia initiation (HIF-1α; AG 2.0 mM, hypoxia time 2.0 h): 3.2 pg/mg protein
HIF-1α 24 hours after hypoxia initiation (HIF-1α; AG 2.0 mM, hypoxia time 2.0 h): 3.2 pg/mg protein
HIF-1α 12 hours after hypoxia initiation (HIF-1α; AG 2.0 mM, hypoxia time 4.0 h): 4.4 pg/mg protein
HIF-1α 24 hours after hypoxia initiation (HIF-1α; AG 2.0 mM, hypoxia time 4.0 h): 4.4 pg/mg protein
HIF-1α difference from untreated controls (HIF-1α; AG 10.0 mM, 12 h post hypoxia initiation, hypoxia time 0.5 h): 2.6 pg/mg protein
HIF-1α difference from untreated controls (HIF-1α; AG 10.0 mM, 12 h post hypoxia initiation, hypoxia time 1.0 h): 3.0 pg/mg protein
HIF-1α difference from untreated controls (HIF-1α; AG 10.0 mM, 12 h post hypoxia initiation, hypoxia time 2.0 h): 1.6 pg/mg protein
HIF-1α difference from untreated controls (HIF-1α; AG 10.0 mM, 12 h post hypoxia initiation, hypoxia time 4.0 h): 0.3 pg/mg protein
HIF-1α difference from untreated controls (HIF-1α; AG 10.0 mM, 24 h post hypoxia initiation, hypoxia time 0.5 h): 1.6 pg/mg protein
HIF-1α difference from untreated controls (HIF-1α; AG 10.0 mM, 24 h post hypoxia initiation, hypoxia time 1.0 h): 3.8 pg/mg protein
HIF-1α difference from untreated controls (HIF-1α; AG 10.0 mM, 24 h post hypoxia initiation, hypoxia time 2.0 h): 1 pg/mg protein
HIF-1α difference from untreated controls (HIF-1α; AG 10.0 mM, 24 h post hypoxia initiation, hypoxia time 4.0 h): 0.1 pg/mg protein
HIF-1α 12 hours after hypoxia initiation (HIF-1α; AG 10.0 mM, hypoxia time 0.5 h): 5.2 pg/mg protein
HIF-1α 24 hours after hypoxia initiation (HIF-1α; AG 10.0 mM, hypoxia time 0.5 h): 3.6 pg/mg protein
HIF-1α 12 hours after hypoxia initiation (HIF-1α; AG 10.0 mM, hypoxia time 1.0 h): 3.9 pg/mg protein
HIF-1α 24 hours after hypoxia initiation (HIF-1α; AG 10.0 mM, hypoxia time 1.0 h): 3.9 pg/mg protein
HIF-1α 12 hours after hypoxia initiation (HIF-1α; AG 10.0 mM, hypoxia time 2.0 h): 4.1 pg/mg protein
HIF-1α 24 hours after hypoxia initiation (HIF-1α; AG 10.0 mM, hypoxia time 2.0 h): 4.1 pg/mg protein
HIF-1α 12 hours after hypoxia initiation (HIF-1α; AG 10.0 mM, hypoxia time 4.0 h): 5.5 pg/mg protein
HIF-1α 24 hours after hypoxia initiation (HIF-1α; AG 10.0 mM, hypoxia time 4.0 h): 5.5 pg/mg protein
HIF-1α difference from untreated controls (HIF-1α; Average all doses, 12 h post hypoxia initiation, hypoxia time 0.5 h): 3.1 pg/mg protein
HIF-1α difference from untreated controls (HIF-1α; Average all doses, 12 h post hypoxia initiation, hypoxia time 1.0 h): 3.27 pg/mg protein
HIF-1α difference from untreated controls (HIF-1α; Average all doses, 12 h post hypoxia initiation, hypoxia time 2.0 h): 2.17 pg/mg protein
HIF-1α difference from untreated controls (HIF-1α; Average all doses, 12 h post hypoxia initiation, hypoxia time 4.0 h): 0.87 pg/mg protein
HIF-1α difference from untreated controls (HIF-1α; Average all doses, 24 h post hypoxia initiation, hypoxia time 0.5 h): 1.43 pg/mg protein
HIF-1α difference from untreated controls (HIF-1α; Average all doses, 24 h post hypoxia initiation, hypoxia time 1.0 h): 4.07 pg/mg protein
HIF-1α difference from untreated controls (HIF-1α; Average all doses, 24 h post hypoxia initiation, hypoxia time 2.0 h): 1.57 pg/mg protein
HIF-1α difference from untreated controls (HIF-1α; Average all doses, 24 h post hypoxia initiation, hypoxia time 4.0 h): 0.67 pg/mg protein
effect on HIF-1α as compared to untreated cells (HIF-1α; at 12 and 24 hours, all durations of hypoxia): reduction of HIF-1α
